The text below walks through data of PubChem BioAssay (NCI).

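How tested: cells in 96-well plates exposed to compound for 48 hours at five concentrations. At the GI50, growth is halved. TGI: total growth inhibition.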 Where only a bound is given, the exact number is not on record here.

Holding throughout (test): NCI tumour cell line growth inhibition, 48 h
Assay [1] deals with CAKI-1 renal.
Assay [2] deals with CCRF-CEM leukemia.
Assay [3] deals with HCT-116 colon.
Assay [4] relates to HT29 colon.
Assay [5] has as its system LOX IMVI melanoma.
Assay [6] concerns MOLT-4 leukemia.
Assay [7] deals with RPMI-8226 leukemia.
Assay [8] has as its system SF-268 CNS.
The subject of assay [9] is UO-31 renal.
In assay [10] the test system is MALME-3M melanoma.

Take `CC1=Cc2ccc(C)cc2C(=O)C1=O`: the TGI worked out at 36.3 µM in assay [1]; 1.98 µM in assay [2]; 10.8 µM in assay [3]; 49.3 µM in [4]; 20.7 µM in [5]; 6.13 µM in [6]. Besides, the TGI in assay [7] is 7.34 µM; in assay [8], 27.5 µM; in assay [9], 3.04 µM.
Regarding `O=c1[nH]c2nc(NC3CCOCC3)ncc2cc1Oc1ccc(F)cc1F`, the GI50 in assay [1], in assay [3], in assay [4], in assay [5], in [10] and in [6] was greater than 25 µM each time. The GI50 in assay [7], in [8] and in [9] was greater than 25 µM each time. Further, the TGI in assay [1], in [3], in [4], in assay [5], in assay [10] and in assay [6] was greater than 25 µM throughout. Besides, the TGI in assay [7], in [8] and in assay [9] was greater than 25 µM in each case.
With `O=C(Nc1ccc(-c2nc(-c3cccc(OCCN4CCOCC4)c3)c(-c3ccnc(Br)c3)[nH]2)cc1)c1ccccc1`, the GI50 in assay [1] is 1.84 µM; in assay [2] it was 2.18 µM; in [3], 2.58 µM; in [10], 1.55 µM; in assay [6] it was 0.784 µM; in assay [7] it was 0.407 µM. Besides, the GI50 was 3.82 µM in assay [8] and 2 µM in assay [9]. In addition, the TGI in [1] is 5.27 µM; in [2] it was greater than 100 µM; in assay [3] it was greater than 100 µM; in [10] it was 3.85 µM; in assay [6], greater than 100 µM; in assay [7], 2.47 µM. Moreover, the TGI was greater than 100 µM in [8] and 5.58 µM in [9].
Consider `C1CC2CN(CCCN3CCOCC3)C(C1)O2` (centres undefined), for which the TGI in [1], in [3], in assay [4], in [5], in assay [10] and in assay [6] was greater than 100 µM throughout. Also, the TGI in assay [7], in [8] and in assay [9] was greater than 100 µM each time.
In the case of `COc1ccc(/C(Cl)=C/c2cc(OC)ccc2OC)cc1`, the TGI in assay [2], in [3], in assay [4], in assay [10], in [6] and in assay [7] was greater than 100 µM in each case. For the same compound, the TGI in assay [8] and in assay [9] was greater than 100 µM each time.
`COc1cc2c(cc1OCCCCCCN1CCN(CC(=O)Nc3ccc(Cl)cc3C(=O)c3ccccc3Cl)CC1)N=CC1CCCN1C2=O` (centres undefined): the GI50 in [1] was 0.151 µM; in assay [3], 0.183 µM; in assay [4], 0.229 µM; in [5], 0.157 µM; in assay [10], 0.185 µM; in [6] it was 0.167 µM. Besides, the GI50 in [9] was 0.242 µM. Also, the TGI in [1] was determined as 0.421 µM; in [3] it was 0.481 µM; in assay [4], 0.576 µM; in assay [5], 0.305 µM; in assay [10] it was 0.361 µM; in assay [6], 0.426 µM. This compound also showed a TGI in [9] of 0.681 µM.
As for `COc1ccc(CCn2c(=O)c3ccccc3n(C)c2=O)cc1`, the TGI in [1], in [2], in [3], in assay [4], in assay [10] and in assay [6] was greater than 100 µM each time. In addition, the TGI in assay [7], in [8] and in assay [9] was greater than 100 µM each time.
`C=CCO/N=C(\OC(=O)c1ccc([N+](=O)[O-])cc1)c1ccccc1`: the TGI in assay [1], in assay [2], in assay [4], in [10], in [7] and in assay [8] was greater than 100 µM each time. The compound also displayed a TGI in assay [9] greater than 100 µM.
With `C1CC[N-]CC1.CC(=N\O)/C(C)=N/O.CC(=N\O)/C(C)=N/O.OC1[CH-]CCCC1.[Co+2]`, the GI50 was 34.7 µM in assay [1]; 30.3 µM in assay [3]; 72.5 µM in assay [4]; 36.4 µM in [5]; 18 µM in [10]; 26.4 µM in [6]. The GI50 is 42.4 µM in assay [7], 44.8 µM in assay [8] and greater than 100 µM in [9]. Moreover, the TGI in assay [1] was greater than 100 µM; in assay [3], greater than 100 µM; in assay [4] it was greater than 100 µM; in assay [5] it was greater than 100 µM; in [10], 40.8 µM; in assay [6], 99.1 µM. Further, the TGI in assay [7], in [8] and in assay [9] was greater than 100 µM throughout.
Take `COC(=O)C1=C(C(=O)OC)C2(C)C=CC1O2` (centres undefined): the TGI in assay [3] was 22.3 µM; in assay [4] it was 28.5 µM; in assay [5], 34.5 µM; in assay [10] it was 9.26 µM; in assay [7] it was 4.04 µM; in assay [8] it was greater than 100 µM. The TGI in assay [9] worked out at 17.6 µM.
For the compound `CCOc1c(N=Nc2ccccc2Cl)c(-c2ccccc2)nn1C(=S)S`, the TGI in assay [1] is 70.3 µM; in assay [3], greater than 100 µM; in assay [4] it was greater than 100 µM; in assay [5] it was 46.1 µM; in assay [10], 95.2 µM; in assay [6] it was 58.2 µM. Further, the TGI in [8] and in [9] was greater than 100 µM in each case.
As to `c1ccc2c(-c3nc(-c4c[nH]c5ccncc45)cs3)c[nH]c2c1`, the GI50 in assay [1] was 1.98 µM; in assay [2], 1.44 µM; in assay [3], 1.71 µM; in assay [4], 2.07 µM; in assay [10] it was 1.65 µM; in assay [7], 1.25 µM. In addition, the GI50 was 2.51 µM in assay [8] and 1.21 µM in assay [9]. Besides, the TGI came out at 5.74 µM in assay [1]; 3.52 µM in assay [2]; 3.19 µM in assay [3]; 4.2 µM in assay [4]; 3.13 µM in [10]; 3.04 µM in assay [7]. Moreover, the TGI amounted to 7.96 µM in assay [8] and 2.62 µM in [9].
